Data: patent publication US10683553B2, “Method for determining sensitivity to simultaneous inhibitor against PARP and Tankyrase” (THE ASAN FOUNDATION, priority 2015, dated 2020)

Assays:
Type in all cases: cell-based
[1] = tested on: RKO human colon cancer cell line; test: DNA damage by r-H2AX immunocytochemistry; conditions: RKO (p53 normal, LIG4 mutant); 50 μM, 48 hours
Source text: In order to analyze the degree of DNA damage of Compound A, which is a novel PARP/Tankyrase simultaneous inhibitor, when the p53 gene is a normal type and the LIG4 gene is a mutant type, the present inventors treated a novel PARP/Tankyrase simultaneous inhibitor, Compound A, and the competitive drug PARP inhibitor, olaparib, in the RKO human colon cancer cell line in which the p53 gene is a normal type and the LIG4 gene is a mutant type, and the DNA damage was confirmed by the immunochemical method as the expression level of r-H2AX. The conditions and methods of the experiment were as follows: RKO human colon cancer cell line in which the p53 gene is a normal type and the LIG4 gene is a mutant type was cultured in RPMI1640 (10% FBS, 1% penicillin/streptomycin) and cultured in a 60 mm plate at 1×10^5 per well for 24 hours at 37° C. […] The r-H2AX antibody was diluted at a ratio of 1:100 in 1% BSA, reacted overnight at 4° C., washed three times for 10 minutes with TBS-T buffer, and the secondary antibody (Alexa Fluor®488 fitc) was diluted at a ratio of 1:100 in 1% BSA, reacted at room temperature for 2 hours, and then washed with TBS-T A buffer three times for 10 minutes, and stained with DAPI to confirm the expression level of r-H2AX under a fluorescence microscope.

[2] = tested on: HCT116 human colon cancer cell line; test: Western blot of r-H2AX and cleaved caspase 3; conditions: 50 μM, 48 hours
Source text: (§1) In order to analyze the degree of DNA damage and the degree of apoptosis of Compound A, which is a novel PARP/Tankyrase simultaneous inhibitor, when the p53 gene is a normal type and the LIG4 gene is a mutant type, the present inventors treated a novel PARP/Tankyrase simultaneous inhibitor, Compound A, and the competitive drug PARP inhibitor; olaparib, in the HCT116 human colon cancer cell line in which the p53 gene and an LIG4 gene are normal types and in the RKO human colon cancer cell line in which the p53 gene is a normal type and an LIG4 gene is a mutant type, and then confirmed the DNA damage with the expression level of r-H2Ax by western blotting method and confirmed the degree of apoptosis with the expression level of cleaved caspase 3. The conditions and method of the experiment were as follows: The HCT116 human colon cancer cell line in which the p53 gene and an LIG4 gene are normal types and the RKO human colon cancer cell line in which the p53 gene is a normal type and an LIG4 gene is a mutant type were cultured in RPMI1640 (10% FBS, 1% penicillin/streptomycin) and cultured in a 60 mm plate at 1×10^5 per well for 24 hours at 37° C. Compound A, which is a novel PARP/Tankyrase simultaneous inhibitor, and olaparib, which is a competitive drug PARP inhibitor, were treated with 50 μM each and were cultured for 48 hours. Then, the cells were obtained using a centrifuge. Each cell thus obtained was dissolved using an RIPA buffer, and the proteins were extracted using a high-speed centrifuge. 30 μg protein per cell was electrophoresed by western blot method to separate proteins and transferred to PDVF membrane. The r-H2AX, truncated caspase 3, and b-actin antibody were diluted with each 1:2000 in 5% skim milk. Then, the cells were reacted at 4° C. for 12 hours and then washed three times for 15 minutes with TBS-T buffer. The secondary antibody was diluted with each 1:2000 ratio in 5% skim milk and reacted at room temperature for 2 hours. It was washed with TBS-T buffer three times for 15 minutes to induce luminescence of PDVF membrane using ECL (Enhanced Chemiluminescence) buffer solution to develop protein expression on each anti-body using an X-ray film.

[3] = tested on: RKO human colon cancer cell line; test: Western blot of r-H2AX and cleaved caspase 3; conditions: 50 μM, 48 hours
Source text: as §1

[4] = tested on: HCT8 human colon cancer cell line; test: Western blot of r-H2AX and truncated caspase 3 with overexpressed mutant LIG4; conditions: HCT8 overexpressing LIG4 mutant G833A or T1704C
Experimental: The present inventors conducted an experiment in the same manner as Example 9 to analyze the degree of apoptosis and DNA damage of Compound A, which is a novel PARP/Tankyrase simultaneous inhibitor, when the p53 genotype is a mutant type and an LIG4 genotype is a mutant type. The number of cells was measured by trypan blue staining method and the degree of apoptosis was confirmed. The cells were obtained using a centrifuge. Each cell thus obtained was dissolved using an RIPA buffer, and the proteins were extracted using a high-speed centrifuge. 30 μg protein per cell was electrophoresed by western blot method to separate proteins and transferred to PDVF membrane. The r-H2AX, truncated caspase 3, and b-actin antibody were diluted with each 1:2000 ratio in 5% skim milk. Then, the cells were reacted at 4° C. for 12 hours and then washed three times for 15 minutes with TBS-T buffer. The secondary antibody was diluted with each 1:2000 ratio in 5% skim milk and reacted at room temperature for 2 hours. It was washed with TBS-T buffer three times for 15 minutes to induce luminescence of PDVF membrane using ECL buffer solution to develop protein expression on each anti-body using an X-ray film.

[5] = tested on: LoVo human colon cancer cell line; test: Trypan blue apoptosis with overexpressed mutant p53 or normal LIG4; conditions: 25 μM and 50 μM, 48 hours
Source text: As in Example 12, in order to analyze the degree of apoptosis of Compound B, which is a novel PARP/Tankyrase simultaneous inhibitor, according to the expression of a mutant type p53 and a normal type LIG4 when the p53 genotype is a normal type and an LIG4 genotype is a mutant type, the present inventors treated a novel PARP/Tankyrase simultaneous inhibitor, Compound B, and the competitive drug PARP inhibitor, olaparib, while overexpressing the p53 mutant type and the LIG4 normal type in the LoVo human colon cancer cell line in which the p53 gene is a normal type and an LIG4 genotype is a mutant type. Then, the number of cells was measured by trypan blue staining assay to confirm the degree of apoptosis. The conditions and methods of the above experiment were the same as the methods of RKO cell culturing and transfection methods of Example 12. Compound B, which is a novel PARP/Tankyrase simultaneous inhibitor, and olaparib, which is a competitive drug PARP inhibitor, were treated with each of 25 μM and 50 μM. After 48 hours of culturing, the number of cells was measured by trypan blue staining assay and the degree of apoptosis was confirmed.

Row | SMILES | DNA damage: expression level of r-H2AX (immunocytochemistry) [1] | expression amount of truncated caspase 3 (western blot) [2] | expression of r-H2AX (western blot) [2] | expression amount of truncated caspase 3 (western blot) [3] | expression of r-H2AX (western blot) [3] | expression amount of truncated caspase 3 (western blot) [4] | expression of r-H2AX (western blot) [4] | degree of apoptosis (trypan blue cell count) ([5]; LoVo overexpressing LIG4 normal type gene vs control group (empty)) | degree of apoptosis (trypan blue cell count) ([5]; LoVo overexpressing p53 mutant type gene vs control group (empty))
1 | CCOc1cc(CN(C)C)cc2[nH]c(=O)c3c(c12)NCCC3 [Compound A, 8-[(dimethylamino)methyl]-10-ethoxy-1,2,3,4-tetrahydrobenzo[h][1,6]naphthyridin-5(6H)-one] | expression of r-H2AX was increased | increased expression amount of the truncated caspase 3 | increased expression of r-H2AX than the group treated with olaparib | increased expression amount of the truncated caspase 3 | increased expression of r-H2AX than the group treated with olaparib | also increased | also increased |  | 
2 | N#Cc1ccc(N2CCN(Cc3ccc4c5c(c(=O)[nH]c4c3)CCCN5)CC2)nc1 [Compound B, 6-{4-[(5-oxo-1,2,3,4,5,6-hexahydrobenzo[h][1,6]naphthyridin-8-yl)methyl]piperazin-1-yl}nicotinonitrile] |  |  |  |  |  |  |  | apoptosis was reduced | apoptosis was reduced
